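48-hour exposure; five concentrations; linearly interpolated endpoints. Here, GI50 denotes the concentration required for 50% inhibition of growth.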 Activity calls are given as the source filed them. Cut-off read from the data, not from the text of the source: active = GI50 up to about 1.1 µM and inactive = higher.
Experiments:
Assay in all cases: inhibition of tumour cell growth, NCI panel, 48 h
HOP-62 = test system: HOP-62
HCT-116 = test system: HCT-116
MCF7 = test system: MCF7
IGROV-1 = test system: IGROV-1
786-0 = test system: 786-0
SF-268 = test system: SF-268
UACC-257 = test system: UACC-257
OVCAR-4 = test system: OVCAR-4
NCI-H460 = test system: NCI-H460
MOLT-4 = test system: MOLT-4
SW-620 = test system: SW-620
SNB-19 = test system: SNB-19
NCI/ADR-RES = test system: NCI/ADR-RES
CAKI-1 = test system: CAKI-1
OVCAR-8 = test system: OVCAR-8
U-251 = test system: U-251
BT-549 = test system: BT-549
COLO 205 = test system: COLO 205
NCI-H226 = test system: NCI-H226
SR = test system: SR

COC1(CC[C@H](C)COC2OC(CO)C(O)C(O)C2O)O[C@H]2C[C@H]3[C@@H]4CC=C5C[C@@H](OC6OC(CO)C(O)C(OC7OC(CO)C(O)C(O)C7O)C6OC6OC(C)C(O)C(O)C6O)CC[C@]5(C)[C@H]4CC[C@]3(C)[C@H]2[C@@H]1C (stereo not given in full)
GI50 (HOP-62): 5.51 µM (inactive)
GI50 (HCT-116): 4.5 µM (inactive)
GI50 (MCF7): 9.2 µM (inactive)
GI50 (IGROV-1): 3.73 µM (inactive)
GI50 (786-0): 2.32 µM (inactive)
GI50 (SF-268): 4.89 µM (inactive)
GI50 (UACC-257): 5.73 µM (inactive)
GI50 (OVCAR-4): 5.28 µM (inactive)
GI50 (NCI-H460): 3.62 µM (inactive)
GI50 (MOLT-4): 3.15 µM (inactive)
GI50 (SW-620): 2.81 µM (inactive)
GI50 (SNB-19): 7.31 µM (inactive)
GI50 (NCI/ADR-RES): 9.44 µM (inactive)
GI50 (CAKI-1): 5.45 µM (inactive)
GI50 (OVCAR-8): 3.03 µM (inactive)
GI50 (U-251): 2.12 µM (inactive)
GI50 (BT-549): 7.6 µM (inactive)
GI50 (COLO 205): 4.08 µM (inactive)
GI50 (NCI-H226): 6.49 µM (inactive)
GI50 (SR): > 100 µM (inactive)

O=C(/C=C(O)/C(=C/C(=O)c1ccccc1)NN=C(c1ccccc1)c1ccccc1)c1ccccc1
GI50 (HOP-62): 21 µM (inactive)
GI50 (HCT-116): 28.1 µM (inactive)
GI50 (MCF7): 34.4 µM (inactive)
GI50 (IGROV-1): 36.9 µM (inactive)
GI50 (786-0): 31.1 µM (inactive)
GI50 (SF-268): 30.3 µM (inactive)
GI50 (UACC-257): 26.9 µM (inactive)
GI50 (OVCAR-4): 38.4 µM (inactive)
GI50 (NCI-H460): 24 µM (inactive)
GI50 (MOLT-4): 14.1 µM (inactive)
GI50 (SW-620): 33.2 µM (inactive)
GI50 (SNB-19): 41.3 µM (inactive)
GI50 (NCI/ADR-RES): 18.9 µM (inactive)
GI50 (CAKI-1): 39.7 µM (inactive)
GI50 (OVCAR-8): 44.7 µM (inactive)
GI50 (U-251): 26.7 µM (inactive)
GI50 (BT-549): 31.2 µM (inactive)
GI50 (COLO 205): 40.6 µM (inactive)
GI50 (NCI-H226): 24.9 µM (inactive)
GI50 (SR): 9.08 µM (inactive)

CC(=O)N1NC(c2ccccc2)=NC(=O)C1c1cc(C)c(O)c(C)c1 (stereo not given)
GI50 (HOP-62): 16.2 µM (inactive)
GI50 (HCT-116): 21.2 µM (inactive)
GI50 (MCF7): 21.2 µM (inactive)
GI50 (IGROV-1): 26.9 µM (inactive)
GI50 (786-0): 17.3 µM (inactive)
GI50 (SF-268): 16.9 µM (inactive)
GI50 (UACC-257): 31.2 µM (inactive)
GI50 (OVCAR-4): 19.8 µM (inactive)
GI50 (NCI-H460): 31.1 µM (inactive)
GI50 (MOLT-4): > 100 µM (inactive)
GI50 (SW-620): 44.4 µM (inactive)
GI50 (SNB-19): 21.2 µM (inactive)
GI50 (NCI/ADR-RES): 21.9 µM (inactive)
GI50 (CAKI-1): > 100 µM (inactive)
GI50 (OVCAR-8): 17.6 µM (inactive)
GI50 (U-251): 19.2 µM (inactive)
GI50 (BT-549): 23 µM (inactive)
GI50 (COLO 205): > 100 µM (inactive)
GI50 (NCI-H226): 23.9 µM (inactive)
GI50 (SR): 49.3 µM (inactive)

O=C1COC(c2ccccc2O)=NN1CCCN1CCCC1
GI50 (HOP-62): > 100 µM (inactive)
GI50 (HCT-116): > 100 µM (inactive)
GI50 (MCF7): > 100 µM (inactive)
GI50 (IGROV-1): > 100 µM (inactive)
GI50 (786-0): > 100 µM (inactive)
GI50 (SF-268): > 100 µM (inactive)
GI50 (UACC-257): > 100 µM (inactive)
GI50 (OVCAR-4): > 100 µM (inactive)
GI50 (NCI-H460): > 100 µM (inactive)
GI50 (MOLT-4): > 100 µM (inactive)
GI50 (SW-620): > 100 µM (inactive)
GI50 (SNB-19): > 100 µM (inactive)
GI50 (NCI/ADR-RES): > 100 µM (inactive)
GI50 (CAKI-1): > 100 µM (inactive)
GI50 (OVCAR-8): > 100 µM (inactive)
GI50 (U-251): > 100 µM (inactive)
GI50 (BT-549): > 100 µM (inactive)
GI50 (COLO 205): > 100 µM (inactive)
GI50 (NCI-H226): > 100 µM (inactive)
GI50 (SR): 60.3 µM (inactive)

COC(=O)/C=C1\C(=O)N(C(C)=O)c2ccccc21
GI50 (HOP-62): 12.9 µM (inactive)
GI50 (HCT-116): 8.28 µM (inactive)
GI50 (MCF7): 3.64 µM (inactive)
GI50 (IGROV-1): 7.87 µM (inactive)
GI50 (786-0): 4.9 µM (inactive)
GI50 (SF-268): 16.5 µM (inactive)
GI50 (UACC-257): 7.38 µM (inactive)
GI50 (OVCAR-4): 5.25 µM (inactive)
GI50 (NCI-H460): 10.5 µM (inactive)
GI50 (MOLT-4): 5.78 µM (inactive)
GI50 (SW-620): 13.7 µM (inactive)
GI50 (SNB-19): 18 µM (inactive)
GI50 (NCI/ADR-RES): 13.9 µM (inactive)
GI50 (CAKI-1): 0.0671 µM (active)
GI50 (OVCAR-8): 17.4 µM (inactive)
GI50 (U-251): 12.8 µM (inactive)
GI50 (BT-549): 3.47 µM (inactive)
GI50 (COLO 205): 12.2 µM (inactive)
GI50 (NCI-H226): 12.4 µM (inactive)
GI50 (SR): 2.52 µM (inactive)
